Experimental data from US11180509B2, “Thiazolidone spiro pyrimidine trione compound, preparation method therefor and uses thereof” (SHANGHAI INSTITUTE OF MATERIA MEDICA, CHINESE ACADEMY OF …, priority 2017, dated 2021).
In brackets after ≈: the same amount, converted by molar mass. Like-named read-outs stand apart in the source and are kept apart here.

How the values were obtained:
[1] = tested on: methicillin-resistant Staphylococcus epidermidis or MRSE; experiment: In vitro antibacterial activity, MIC by micro broth dilution; assay type: cell-based; conditions: read-out: MIC MRSE
Text: (§1) The following strains isolated in clinic were used in antibacterial activity screening in vitro: five strains of methicillin-resistant Staphylococcus aureus or MRSA, five strains of methicillin-sensitive Staphylococcus aureus or MSSA, five strains of methicillin-resistant Staphylococcus epidermidis or MRSE, five strains of methicillin-sensitive Staphylococcus epidermidis or MSSE, three strains of penicillin-resistant Streptococcus pneumoniae or PRSP, and three strains of Streptococcus pyogenes.
(§2) The above strains were clinically isolated pathogenic bacteria collected in Sichuan and Beijing in December 2015. They were identified by the collection unit via a VITEK-60 automatic microbiological identification instrument, and then re-identified by conventional methods in the laboratory. Before the experiment, each strain was purified by a single colony on an agar plate, and the cells freshly cultured at 37° C. overnight were appropriately diluted for the experiment. Quality control strain was Staphylococcus aureus ATCC25923 purchased from the Clinical Testing Center of the Ministry of Health of the People's Republic of China.
(§3) Medium: MH (Mueller-Hinton, hydrolyzed casein) broth (OXOID);
(§4) Culture condition: Incubate at 35-37° C. for 16-18 h.
(§5) The MIC value of each test sample for the tested strain was determined by micro broth dilution method recommended by Performance Standards for Antimicrobial Susceptibility Testing (Twenty-Third Informational Supplement; M02-A11, M07-A9 and M11-A8, 2013) of American Clinical and Laboratory Standards Institute (CLSI).
(§6) After diluting each test sample to different concentrations in MH broth, 100 μl of each sample solution at different concentrations was pipetted into a sterilized 96-well polystyrene plate. In the first to twelfth wells, the drug solution was added, and the final drug concentrations in each well were 64, 32, 16, 8, 4, 2, 1, 0.5, 0.25, 0.125, 0.06, and 0.03 mg/L. The well without drug and without bacteria was set as blank control well. The well with bacteria and without drug was set as a bacterial growth control well.
(§7) The test bacterial solution was adjusted with physiological saline to a bacterial suspension equivalent to 0.5 Maisson turbidity standard, and diluted 1:100 with MH broth. The drug solution was added so that the final concentration of the bacterial solution was about 10^4 CFU/ml; then 100 μl of bacterial solution was pipetted into the above wells (the total volume in each well was 200 μl). The plate was sealed and placed in a 35-37° C. incubator for 18-20 h, and then the results were determined. […] When Streptococcus pneumoniae was tested, sterile defibrillated sheep blood was added into the Colombian broth culture medium at a final concentration of 5% and cultivation was conducted in a 5% CO2 and 35-37° C. incubator for 18-20 hours.

[2] = tested on: methicillin-resistant Staphylococcus aureus or MRSA; experiment: as above; assay type: cell-based; conditions: read-out: MIC MRSA
Text: as §1, §2, §3, §4, §5, §6, §7

[3] = tested on: penicillin-resistant Streptococcus pneumoniae or PRSP; experiment: as above; assay type: cell-based; conditions: read-out: MIC PRSP
Text: as §1, §2, §3, §4, §5, §6, §7

[4] = tested on: methicillin-sensitive Staphylococcus epidermidis or MSSE; experiment: as above; assay type: cell-based; conditions: read-out: MIC MSSE
Text: as §1, §2, §3, §4, §5, §6, §7

[5] = tested on: methicillin-sensitive Staphylococcus aureus or MSSA; experiment: as above; assay type: cell-based; conditions: read-out: MIC MSSA
Text: as §1, §2, §3, §4, §5, §6, §7

Streptococcus pyogenes = experiment: as above; assay type: cell-based; conditions: read-out: MIC Spy
Text: as §1, §2, §3, §4, §5, §6, §7

[6] = In vivo pharmacokinetics test in mice (oral); parameters: species or system CD-1 mice; conditions: PO 10.0 mg/kg
Protocol: Healthy female CD-1 mice were randomly divided into five groups and each group comprised three mice. The tested compound was administered orally.
0.030 mL of blood was taken from the orbit of each animal each time and anticoagulated with EDTAK2. The collection time was as follows. PO group: 15 m, 30 mi, 1 h, 2 h, 4 h, 6 h, 8 h, and 24 h after administration of the test compound. The collected blood samples were placed on ice and centrifuged within 30 minutes to separate the plasma (centrifugation conditions: 5000 rpm, 10 minutes, room temperature). The samples were stored at −80° C. before analysis.

[7] = 3 clinical strains, range over strains

| SMILES | MIC [1] | MIC [2] | MIC [3] | MIC [4] | MIC [5] | MIC (Streptococcus pyogenes) | MIC [3, 7] | MIC ([4]; 5 clinical strains, range over strains) | MIC (Streptococcus pyogenes; [7]) | AUC0→t relative to AZD0914 ([6]; multiple of the AZD0914 value) | Cmax relative to AZD0914 ([6]; multiple of the AZD0914 value) | AUC0→t ([6]; plasma) | Cmax ([6]; plasma) | MRT ([6]; plasma) | t1/2 ([6]; plasma) | Tmax ([6]; female, CD-1, mouse, plasma, read-out: Tmax) |
| --- | --- | --- | --- | --- | --- | --- | --- | --- | --- | --- | --- | --- | --- | --- | --- | --- |
| C[C@@H]1CN2c3c(cc4c(N5C[C@H](CN=[N+]=[N-])SC5=O)noc4c3F)CC3(C(=O)NC(=O)NC3=O)[C@H]2[C@H](C)O1 [Compound 10, (2R,4S,4aS)-8-((R)-5-(azidomethyl)-2-oxothiazol-3-yl)-11-fluoro-2,4-dimethyl-1,2,4,4a-tetrahydro-2′H,6H-spiro[isoxazole[4,5-g][1,4]oxazine[4,3-a]quinoline-5,5′-pyrimidine]-2′,4′,6′(1′H,3′H)-trione] | 0.03 to 0.125 µg/mL (≈ 0.0551 to 0.23 µM) | 0.25 to 0.5 µg/mL (≈ 0.459 to 0.918 µM) | 0.125 µg/mL (≈ 0.23 µM) | 0.03 to 0.25 µg/mL (≈ 0.0551 to 0.459 µM) | 0.06 to 0.25 µg/mL (≈ 0.11 to 0.459 µM) | 0.125 to 1 µg/mL (≈ 0.23 to 1.84 µM) | – | – | – | – | – | – | – | – | – | – |
| C[C@H]1COc2c(N3CCN(C)CC3)c(F)cc3c(=O)c(C(=O)O)cn1c23 [levofloxacin, reference compound] | – | – | – | – | – | – | 1 µg/mL (≈ 2.77 µM) | 0.5 to 4 µg/mL (≈ 1.38 to 11.1 µM) | 0.5 to 1 µg/mL (≈ 1.38 to 2.77 µM) | – | – | – | – | – | – | – |
| C[C@@H]1CN2c3c(cc4c(N5C(=O)SC[C@H]5C)noc4c3F)CC3(C(=O)NC(=O)NC3=O)[C@H]2[C@H](C)O1 [Compound 4, (2R,4S,4aS)-11-fluoro-2,4-dimethyl-8-((R)-4-methyl-2-oxothiazolin-3-yl)-1,2,4,4a-tetrahydro-2′H,6H-spiro[isoxazole[4,5-g][1,4]oxazine[4,3-a]quinoline-5,5′-pyrimidine]-2′,4′,6′(1′H,3′H)-trione] | 0.03 to 0.125 µg/mL (≈ 0.0596 to 0.248 µM) | 0.03 to 0.5 µg/mL (≈ 0.0596 to 0.993 µM) | 0.25 to 1 µg/mL (≈ 0.497 to 1.99 µM) | 0.03 to 0.125 µg/mL (≈ 0.0596 to 0.248 µM) | 0.25 to 0.5 µg/mL (≈ 0.497 to 0.993 µM) | 0.125 to 0.25 µg/mL (≈ 0.248 to 0.497 µM) | – | – | – | – | – | – | – | – | – | – |
| COC[C@H]1CN(c2noc3c(F)c4c(cc23)CC2(C(=O)NC(=O)NC2=O)[C@H]2[C@H](C)O[C@H](C)CN42)C(=O)S1 [Compound 8, (2R,4S,4aS)-11-fluoro-8-((R)-5-(methoxymethyl)-2-oxothiazolin-3-yl)-2,4-dimethyl-1,2,4,4a-tetrahydro-2′H,6H-spiro[isoxazole[4,5-g][1,4]oxazine[4,3-a]quinoline-5,5′-pyrimidine]-2′,4′,6′(1′H,3′H)-trione] | 0.03 µg/mL (≈ 0.0562 µM) | 0.03 to 0.5 µg/mL (≈ 0.0562 to 0.937 µM) | 0.03 to 0.5 µg/mL (≈ 0.0562 to 0.937 µM) | 0.03 to 0.125 µg/mL (≈ 0.0562 to 0.234 µM) | 0.03 to 0.25 µg/mL (≈ 0.0562 to 0.469 µM) | 0.25 to 0.5 µg/mL (≈ 0.469 to 0.937 µM) | – | – | – | ~11 times) | ~11 times) | 8240 ± 940 ng·h/mL | 2051 ± 88 ng/mL | 3.72 ± 0.76 h | 2.51 ± 0.08 h | 0.583 ± 0.382 h |
| C[C@@H]1CN2c3c(cc4c(N5C(=O)SC[C@@H]5C)noc4c3F)CC3(C(=O)NC(=O)NC3=O)[C@H]2[C@H](C)O1 [Compound 5, (2R,4S,4aS)-11-fluoro-2,4-dimethyl-8-((S)-4-methyl-2-oxothiazolin-3-yl)-1,2,4,4a-tetrahydro-2′H,6H-spiro[isoxazole[4,5-g][1,4]oxazine[4,3-a]quinoline-5,5′-pyrimidine]-2′,4′,6′(1′H,3′H)-trione] | 0.06 to 0.25 µg/mL (≈ 0.119 to 0.497 µM) | 0.03 to 0.25 µg/mL (≈ 0.0596 to 0.497 µM) | 0.125 to 1 µg/mL (≈ 0.248 to 1.99 µM) | 0.03 to 0.125 µg/mL (≈ 0.0596 to 0.248 µM) | 0.25 to 0.5 µg/mL (≈ 0.497 to 0.993 µM) | 0.125 to 0.25 µg/mL (≈ 0.248 to 0.497 µM) | – | – | – | – | – | – | – | – | – | – |
| C[C@@H]1CN2c3c(cc4c(N5C(=O)S[C@@H]6CCC[C@@H]65)noc4c3F)CC3(C(=O)NC(=O)NC3=O)[C@H]2[C@H](C)O1 [Compound 21, (2R,4S,4aS)-11-fluoro-2,4-dimethyl-8-((3aS,6aR)-2-oxotetrahydro-2H-cyclopentane[d]thiazol-3(3aH)-yl)-1,2,4,4a-tetrahydro-2′H,6H-spiro[isoxazole[4,5-g][1,4]oxazine [4,3-a]quinoline-5,5′-pyrimidine]-2′,4′,6′(1′H,3′H)-trione] | 0.03 to 0.06 µg/mL (≈ 0.0567 to 0.113 µM) | 0.03 to 0.125 µg/mL (≈ 0.0567 to 0.236 µM) | 0.03 to 0.125 µg/mL (≈ 0.0567 to 0.236 µM) | 0.03 to 0.125 µg/mL (≈ 0.0567 to 0.236 µM) | 0.03 to 0.125 µg/mL (≈ 0.0567 to 0.236 µM) | 0.03 to 0.125 µg/mL (≈ 0.0567 to 0.236 µM) | – | – | – | – | – | – | – | – | – | – |
